From ChEMBL document CHEMBL1156987, “Novel azalides derived from 16-membered macrolides. III. Azalides modified at the C-15 and 4'' positions: Improved antibacterial activities” (Bioorg Med Chem, 2010) come the findings set out here.

Converted amounts (≈) assume the structure as drawn. Some results are limits rather than exact numbers.

Data set [1] concerns Streptococcus pneumoniae. Put plainly: Antibacterial activity against Streptococcus pneumoniae 8 expressing inducible ermB methylase after 20 hrs by agar dilution method. The class given is functional. The conditions noted are these: Streptococcus pneumoniae, 8, 20 h. (In agar dilution, organisms are placed on agar that contains the substance at set levels.)
Data set [2] concerns Streptococcus pneumoniae. Description: Antibacterial activity against Streptococcus pneumoniae 7 expressing constitutive ermB methylase after 20 hrs by agar dilution method. The conditions noted are these: Streptococcus pneumoniae, 7, 20 h. In kind it is functional.
For data set [3], the system named is Streptococcus pyogenes. Description: Antibacterial activity against Streptococcus pyogenes Cook after 20 hrs by agar dilution method. The class given is functional.
In data set [4] the test system is Streptococcus pneumoniae. Put plainly: Antibacterial activity against Streptococcus pneumoniae DP1 type 1 after 20 hrs by agar dilution method. The class given is functional. The conditions noted are these: DP1 type1, 20 h.
Data set [5] relates to Streptococcus pneumoniae. Put plainly: Antibacterial activity against Streptococcus pneumoniae 11 expressing mefA efflux pump after 20 hrs by agar dilution method. In kind it is functional. The conditions noted are these: Streptococcus pneumoniae, 11, 20 h.
The nature of data set [6]: Metabolic stability at human liver S9 fraction assessed as compound remaining after 1 hr. The class given is ADME, subcellular. The conditions noted are these: read-out: Stability.
Data set [7] relates to Haemophilus influenzae. Put plainly: Antibacterial activity against Haemophilus influenzae 3 after 20 hrs by agar dilution method. In kind it is functional. The conditions noted are these: Haemophilus influenzae, 3, 20 h.
The test system of data set [8] is Staphylococcus aureus. Description: Antibacterial activity against Staphylococcus aureus 209P JC1 after 20 hrs by agar dilution method. The conditions noted are these: 209P JC1, 20 h. The class given is functional.
Data set [9] has as its system Streptococcus pyogenes. Description: Antibacterial activity against Streptococcus pyogenes 2 expressing constitutive ermB methylase after 20 hrs by agar dilution method. In kind it is functional. The conditions noted are these: Streptococcus pyogenes, 2, 20 h.
Data set [10] has as its system Streptococcus pneumoniae. Description: Antibacterial activity against Streptococcus pneumoniae 5 expressing constitutive ermB methylase after 20 hrs by agar dilution method. The class given is functional. The conditions noted are these: Streptococcus pneumoniae, 5, 20 h.
Data set [11] has as its system Haemophilus influenzae. Put plainly: Antibacterial activity against Haemophilus influenzae 2 after 20 hrs by agar dilution method. The conditions noted are these: Haemophilus influenzae, 2, 20 h. The class given is functional.
The test system of data set [12] is Streptococcus pneumoniae. Description: Antibacterial activity against Streptococcus pneumoniae 6 expressing constitutive ermB methylase and mefA after 20 hrs by agar dilution method. In kind it is functional. The conditions noted are these: Streptococcus pneumoniae, 6, 20 h.
Data set [13] relates to Streptococcus pyogenes. Description: Antibacterial activity against Streptococcus pyogenes 3 expressing mefA efflux pump after 20 hrs by agar dilution method. In kind it is functional. The conditions noted are these: Streptococcus pyogenes, 3, 20 h.
Data set [14] deals with Streptococcus pneumoniae. Put plainly: Antibacterial activity against Streptococcus pneumoniae 9 expressing inducible ermB methylase after 20 hrs by agar dilution method. The class given is functional. The conditions noted are these: Streptococcus pneumoniae, 9, 20 h.
For data set [15], the system named is Streptococcus pneumoniae. Put plainly: Antibacterial activity against Streptococcus pneumoniae 10 expressing mefA efflux pump after 20 hrs by agar dilution method. The conditions noted are these: Streptococcus pneumoniae, 10, 20 h. The class given is functional.
Data set [16] relates to Haemophilus influenzae. Put plainly: Antibacterial activity against Haemophilus influenzae 1 after 20 hrs by agar dilution method. The conditions noted are these: Haemophilus influenzae, 1, 20 h. In kind it is functional.

`CCC(=O)O[C@@H]1CC(=O)O[C@H](C)C/C=C/C=C/[C@H](OC(C)=O)[C@H](C)C[C@H](CC=O)[C@H](O[C@@H]2O[C@H](C)[C@@H](O[C@H]3C[C@@](C)(OC(C)=O)[C@@H](OC(=O)CC)[C@H](C)O3)[C@H](N(C)C)[C@H]2O)[C@H]1OC` [MIOCAMYCIN]: the MIC in data set [1] was 4 µg/mL (≈ 4.45 µM); in data set [2], over 128 µg/mL; in data set [3], 0.13 µg/mL (≈ 0.145 µM); in [4] it was 0.13 µg/mL (≈ 0.145 µM); in data set [5], 0.25 µg/mL (≈ 0.278 µM); in [7], 16 µg/mL (≈ 17.8 µM). The MIC in data set [8] is 0.5 µg/mL (≈ 0.557 µM); in [9], over 128 µg/mL; in data set [10], over 128 µg/mL; in data set [11], 16 µg/mL (≈ 17.8 µM); in data set [12], over 128 µg/mL; in data set [13] it was 0.5 µg/mL (≈ 0.557 µM). In addition, the MIC was determined as 8 µg/mL (≈ 8.91 µM) in data set [14], 0.25 µg/mL (≈ 0.278 µM) in [15] and 4 µg/mL (≈ 4.45 µM) in data set [16]. Besides, the remaining at 1 h in data set [6] was 5.1%.

`CCC(=O)O[C@@H]1CC(=O)O[C@@H](C/C=C/c2cnc3ccccc3c2)CCCN(C)C[C@H](O)[C@H](C)C[C@H](CC=O)[C@H](O[C@@H]2O[C@H](C)[C@@H](O[C@H]3C[C@@](C)(O)[C@@H](OC(=O)CC)[C@H](C)O3)[C@H](N(C)C)[C@H]2O)[C@H]1OC`: the MIC in data set [1] was found to be 8 µg/mL (≈ 8.11 µM); in [2], 128 µg/mL (≈ 130 µM); in [3] it was 0.06 µg/mL (≈ 0.0608 µM); in data set [4], 0.015 µg/mL (≈ 0.0152 µM); in data set [5], 0.03 µg/mL (≈ 0.0304 µM); in [7], 8 µg/mL (≈ 8.11 µM). Moreover, the MIC in data set [8] is 0.5 µg/mL (≈ 0.507 µM); in data set [9] it was over 128 µg/mL; in [10] it was 128 µg/mL (≈ 130 µM); in data set [11] it was 8 µg/mL (≈ 8.11 µM); in [12], 128 µg/mL (≈ 130 µM); in data set [13], 0.5 µg/mL (≈ 0.507 µM). In addition, the MIC was determined as 8 µg/mL (≈ 8.11 µM) in data set [14], 0.06 µg/mL (≈ 0.0608 µM) in data set [15] and 2 µg/mL (≈ 2.03 µM) in [16]. Also, in data set [6], the remaining at 1 h was 28%.

As for `CCC(=O)O[C@@H]1CC(=O)O[C@@H](C/C=C/c2cnc3ccccc3c2)CCCN(C)C[C@H](O)[C@H](C)C[C@H](CC=O)[C@H](O[C@@H]2O[C@H](C)[C@@H](O[C@H]3C[C@@](C)(OC(=O)CC)[C@@H](OC(=O)NC)[C@H](C)O3)[C@H](N(C)C)[C@H]2O)[C@H]1OC`, the MIC was 0.25 µg/mL (≈ 0.24 µM) in data set [1]; 32 µg/mL (≈ 30.7 µM) in [2]; 0.06 µg/mL (≈ 0.0575 µM) in data set [3]; under 0.008 µg/mL in [4]; 0.03 µg/mL (≈ 0.0288 µM) in data set [5]; 8 µg/mL (≈ 7.67 µM) in [7]. Further, the MIC is 0.25 µg/mL (≈ 0.24 µM) in [8]; over 32 µg/mL in data set [9]; 32 µg/mL (≈ 30.7 µM) in [10]; 8 µg/mL (≈ 7.67 µM) in [11]; 32 µg/mL (≈ 30.7 µM) in data set [12]; 0.06 µg/mL (≈ 0.0575 µM) in data set [13]. In addition, the figures for the MIC in data set [14], in [15] and in data set [16] were 0.5 µg/mL (≈ 0.479 µM), 0.015 µg/mL (≈ 0.0144 µM) and 4 µg/mL (≈ 3.83 µM), respectively. In data set [6], the remaining at 1 h came out at 78%.

As to `CCCNC(=O)O[C@H]1[C@H](C)O[C@@H](O[C@H]2[C@H](N(C)C)[C@@H](O)[C@H](O[C@H]3[C@@H](CC=O)C[C@@H](C)[C@@H](O)CN(C)CCC[C@H](C/C=C/c4cnc5ccccc5c4)OC(=O)C[C@@H](OC(=O)CC)[C@@H]3OC)O[C@@H]2C)C[C@@]1(C)OC(=O)CC`, the MIC turned out to be 0.25 µg/mL (≈ 0.233 µM) in data set [1]; 16 µg/mL (≈ 14.9 µM) in [2]; 0.13 µg/mL (≈ 0.121 µM) in data set [3]; 0.03 µg/mL (≈ 0.028 µM) in data set [4]; 0.06 µg/mL (≈ 0.056 µM) in data set [5]; 32 µg/mL (≈ 29.9 µM) in data set [7]. Further, the MIC is 0.5 µg/mL (≈ 0.467 µM) in data set [8]; 64 µg/mL (≈ 59.7 µM) in [9]; 16 µg/mL (≈ 14.9 µM) in [10]; 32 µg/mL (≈ 29.9 µM) in [11]; 32 µg/mL (≈ 29.9 µM) in data set [12]; 0.25 µg/mL (≈ 0.233 µM) in data set [13]. Moreover, the figures for the MIC in data set [14], in data set [15] and in [16] were 0.25 µg/mL (≈ 0.233 µM), 0.06 µg/mL (≈ 0.056 µM) and 8 µg/mL (≈ 7.47 µM), respectively.

For the compound `CCNC(=O)O[C@H]1[C@H](C)O[C@@H](O[C@H]2[C@H](N(C)C)[C@@H](O)[C@H](O[C@H]3[C@@H](CC=O)C[C@@H](C)[C@@H](O)CN(C)CCC[C@H](C/C=C/c4cnc5ccccc5c4)OC(=O)C[C@@H](OC(=O)CC)[C@@H]3OC)O[C@@H]2C)C[C@@]1(C)OC(=O)CC`, the MIC worked out at 0.13 µg/mL (≈ 0.123 µM) in data set [1]; 16 µg/mL (≈ 15.1 µM) in [2]; 0.06 µg/mL (≈ 0.0567 µM) in data set [3]; 0.015 µg/mL (≈ 0.0142 µM) in [4]; 0.015 µg/mL (≈ 0.0142 µM) in data set [5]; 16 µg/mL (≈ 15.1 µM) in data set [7]. The MIC was determined as 0.25 µg/mL (≈ 0.236 µM) in data set [8]; 32 µg/mL (≈ 30.3 µM) in data set [9]; 16 µg/mL (≈ 15.1 µM) in [10]; 16 µg/mL (≈ 15.1 µM) in [11]; 16 µg/mL (≈ 15.1 µM) in [12]; 0.13 µg/mL (≈ 0.123 µM) in data set [13]. For the same compound, the figures for the MIC in [14], in data set [15] and in data set [16] were 0.25 µg/mL (≈ 0.236 µM), 0.015 µg/mL (≈ 0.0142 µM) and 8 µg/mL (≈ 7.57 µM), respectively. For the same compound, the remaining at 1 h in [6] worked out at 79%.
